# Laboratory results as given in PubChem BioAssay (NCI).
#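 Here, GI50 denotes the concentration required for 50% inhibition of growth. TGI denotes the concentration required for complete inhibition of growth.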
# Key:
# Test in all cases: NCI tumour cell line growth inhibition, 384-well format
# CCRF-CEM leukemia = test system: CCRF-CEM leukemia
# HOP-92 NSCLC = test system: HOP-92 NSCLC
# HT29 colon = test system: HT29 colon
# IGROV1 ovarian = test system: IGROV1 ovarian
# LOX IMVI melanoma = test system: LOX IMVI melanoma
# MDA-MB-468 breast = test system: MDA-MB-468 breast
# MOLT-4 leukemia = test system: MOLT-4 leukemia
# NCI-H322M lung = test system: NCI-H322M lung
# NCI-H460 NSCLC = test system: NCI-H460 NSCLC
# RXF 393 renal = test system: RXF 393 renal
# SF-268 CNS = test system: SF-268 CNS
# T-47D breast = test system: T-47D breast
# UACC-257 melanoma = test system: UACC-257 melanoma
smiles,measurement,setting,value
CCCS(=O)(=O)Nc1ccc(F)c(C(=O)c2c[nH]c3ncc(-c4ccc(Cl)cc4)cc23)c1F,GI50,CCRF-CEM leukemia,4.15 µM
same,TGI,CCRF-CEM leukemia,6.41 µM
same,GI50,HOP-92 NSCLC,4.98 µM
same,TGI,HOP-92 NSCLC,12.1 µM
same,GI50,HT29 colon,0.146 µM
same,TGI,HT29 colon,10.4 µM
same,GI50,IGROV1 ovarian,1.87 µM
same,TGI,IGROV1 ovarian,8.76 µM
same,GI50,LOX IMVI melanoma,3.93 µM
same,TGI,LOX IMVI melanoma,11.6 µM
same,GI50,MDA-MB-468 breast,5.74 µM
same,TGI,MDA-MB-468 breast,9.38 µM
same,GI50,MOLT-4 leukemia,3.23 µM
same,TGI,MOLT-4 leukemia,8.74 µM
same,GI50,NCI-H322M lung,4.65 µM
same,TGI,NCI-H322M lung,16 µM
same,GI50,NCI-H460 NSCLC,4.97 µM
same,TGI,NCI-H460 NSCLC,13.6 µM
same,GI50,RXF 393 renal,2.36 µM
same,TGI,RXF 393 renal,6.45 µM
same,GI50,SF-268 CNS,7.88 µM
same,TGI,SF-268 CNS,15.8 µM
same,GI50,T-47D breast,6.77 µM
same,TGI,T-47D breast,16.9 µM
same,GI50,UACC-257 melanoma,0.347 µM
